Results on 8 compounds are retold here after ChEMBL document CHEMBL4219149, “Design and synthesis of triple inhibitors of janus kinase (JAK), histone deacetylase (HDAC) and Heat Shock Protein 90 (HSP90)” (Bioorg Med Chem Lett, 2018).

Experiment [1] has as its target T1, Protein deacetylase HDAC6 (Homo sapiens, UniProt Q9UBN7).
T1 sequence (Q9UBN7 whole entry): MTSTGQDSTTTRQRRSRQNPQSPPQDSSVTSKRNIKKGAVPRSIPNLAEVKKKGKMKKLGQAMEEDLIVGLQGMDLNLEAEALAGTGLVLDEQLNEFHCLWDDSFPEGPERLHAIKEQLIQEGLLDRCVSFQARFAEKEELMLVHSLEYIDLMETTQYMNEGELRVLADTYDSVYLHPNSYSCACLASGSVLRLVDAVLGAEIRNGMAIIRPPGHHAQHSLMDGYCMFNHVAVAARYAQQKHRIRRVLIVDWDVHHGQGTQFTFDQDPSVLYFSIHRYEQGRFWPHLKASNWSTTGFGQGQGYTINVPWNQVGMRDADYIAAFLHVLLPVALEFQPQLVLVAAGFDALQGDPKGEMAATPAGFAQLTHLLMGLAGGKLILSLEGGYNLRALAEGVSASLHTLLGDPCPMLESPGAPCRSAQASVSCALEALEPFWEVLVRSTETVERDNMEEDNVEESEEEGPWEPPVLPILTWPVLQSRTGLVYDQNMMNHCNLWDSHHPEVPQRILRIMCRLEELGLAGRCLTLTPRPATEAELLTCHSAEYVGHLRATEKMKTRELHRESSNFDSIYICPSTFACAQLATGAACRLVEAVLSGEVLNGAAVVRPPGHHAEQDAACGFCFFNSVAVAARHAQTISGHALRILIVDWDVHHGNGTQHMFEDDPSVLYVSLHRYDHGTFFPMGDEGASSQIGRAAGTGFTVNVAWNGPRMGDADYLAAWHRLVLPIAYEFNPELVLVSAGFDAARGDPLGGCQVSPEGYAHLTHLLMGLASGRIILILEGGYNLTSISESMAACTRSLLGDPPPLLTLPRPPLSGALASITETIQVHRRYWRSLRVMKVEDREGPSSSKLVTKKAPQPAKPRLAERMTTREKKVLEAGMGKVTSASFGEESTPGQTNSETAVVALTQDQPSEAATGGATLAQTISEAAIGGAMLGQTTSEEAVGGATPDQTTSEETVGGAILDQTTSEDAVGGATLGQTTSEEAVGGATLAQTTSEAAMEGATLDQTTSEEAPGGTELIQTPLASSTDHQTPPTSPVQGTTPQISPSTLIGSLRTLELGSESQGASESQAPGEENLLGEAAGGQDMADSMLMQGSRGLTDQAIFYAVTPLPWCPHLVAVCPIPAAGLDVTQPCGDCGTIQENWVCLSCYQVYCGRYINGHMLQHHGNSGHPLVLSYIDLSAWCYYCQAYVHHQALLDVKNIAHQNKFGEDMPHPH
The experiment in a line: Inhibition of HDAC6 (unknown origin) using Arg-His-Lys-Lys(Ac) as substrate after 2 hrs by fluorescence analysis.

Experiment [2] has as its target Histone deacetylase 1 (Homo sapiens, UniProt Q13547). Description: Inhibition of HDAC1 (unknown origin) using Arg-His-Lys-Lys(Ac) as substrate after 2 hrs by fluorescence analysis.
Experiment [3] concerns the target Heat shock protein HSP 90-alpha (Homo sapiens, UniProt P07900). Description: Inhibition of HSP90alpha (unknown origin).
Experiment [4] concerns the target Tyrosine-protein kinase JAK2 (Homo sapiens, UniProt O60674). Description: Inhibition of human JAK2 using poly[Glu:Tyr] (4:1) as substrate in presence of [gamma33P]-ATP.
Experiment [5] addresses Heat shock protein HSP90 (Homo sapiens, UniProt P07900+P08238). The experiment in a line: Inhibition of geldanamycin-based probe binding to HSP90 (unknown origin) by fluorescence polarization assay. The class given is protein assay. (In fluorescence polarisation assays a small probe gives low polarisation when free and higher when bound to something large.)

Chain of Histone deacetylase 1 (Q13547 whole entry): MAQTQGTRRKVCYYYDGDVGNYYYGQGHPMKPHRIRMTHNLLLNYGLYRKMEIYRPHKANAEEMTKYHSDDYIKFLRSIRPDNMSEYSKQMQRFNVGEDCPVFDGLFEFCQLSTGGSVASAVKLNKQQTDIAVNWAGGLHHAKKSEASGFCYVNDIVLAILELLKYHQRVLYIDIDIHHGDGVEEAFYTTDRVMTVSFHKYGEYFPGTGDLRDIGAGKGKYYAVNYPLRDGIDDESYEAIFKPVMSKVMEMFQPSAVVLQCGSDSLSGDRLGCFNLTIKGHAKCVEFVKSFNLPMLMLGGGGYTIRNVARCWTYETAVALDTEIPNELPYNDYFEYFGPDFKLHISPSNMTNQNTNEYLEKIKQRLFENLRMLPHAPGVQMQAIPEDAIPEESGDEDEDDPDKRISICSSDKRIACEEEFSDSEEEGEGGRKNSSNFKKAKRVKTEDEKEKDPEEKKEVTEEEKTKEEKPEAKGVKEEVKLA
Chain of Tyrosine-protein kinase JAK2 (O60674 whole entry): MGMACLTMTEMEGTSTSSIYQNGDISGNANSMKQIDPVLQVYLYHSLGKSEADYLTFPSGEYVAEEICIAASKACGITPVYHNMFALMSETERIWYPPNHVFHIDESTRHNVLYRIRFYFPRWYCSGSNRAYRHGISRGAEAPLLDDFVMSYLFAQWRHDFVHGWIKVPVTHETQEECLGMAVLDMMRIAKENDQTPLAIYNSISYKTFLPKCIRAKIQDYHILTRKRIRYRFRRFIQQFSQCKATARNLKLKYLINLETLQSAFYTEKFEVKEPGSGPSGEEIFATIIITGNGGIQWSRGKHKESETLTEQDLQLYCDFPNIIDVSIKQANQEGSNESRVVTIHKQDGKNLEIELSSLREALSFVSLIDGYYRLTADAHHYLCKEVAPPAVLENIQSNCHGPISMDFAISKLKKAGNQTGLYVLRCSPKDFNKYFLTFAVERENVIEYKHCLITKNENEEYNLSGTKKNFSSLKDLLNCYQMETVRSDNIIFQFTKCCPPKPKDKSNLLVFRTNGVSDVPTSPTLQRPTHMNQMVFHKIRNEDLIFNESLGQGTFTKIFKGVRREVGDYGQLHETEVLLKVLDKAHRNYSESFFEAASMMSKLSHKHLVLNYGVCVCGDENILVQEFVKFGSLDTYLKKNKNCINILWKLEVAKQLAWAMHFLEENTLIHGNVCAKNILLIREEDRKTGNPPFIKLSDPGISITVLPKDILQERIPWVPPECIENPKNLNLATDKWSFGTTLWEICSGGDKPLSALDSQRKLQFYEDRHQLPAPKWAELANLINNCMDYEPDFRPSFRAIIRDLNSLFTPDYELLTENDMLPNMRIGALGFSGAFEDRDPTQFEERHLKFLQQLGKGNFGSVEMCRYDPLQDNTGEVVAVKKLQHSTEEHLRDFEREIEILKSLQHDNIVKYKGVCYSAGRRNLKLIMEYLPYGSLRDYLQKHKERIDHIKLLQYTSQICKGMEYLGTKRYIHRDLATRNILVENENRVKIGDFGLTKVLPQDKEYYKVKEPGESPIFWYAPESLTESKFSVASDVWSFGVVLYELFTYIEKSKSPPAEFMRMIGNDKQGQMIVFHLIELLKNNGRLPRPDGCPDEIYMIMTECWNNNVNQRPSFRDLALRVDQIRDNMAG

In general, IC50 refers to the concentration that inhibits the measured activity by half. For `CCNC(=O)c1cc2c(-c3cc(OCCCCCCn4cc(-c5nc(Nc6ccc(NC(=O)CCCCCCC(=O)O)cc6)nc6[nH]ccc56)cn4)c(Cl)cc3Cl)nc(N)nc2s1`, the IC50 is 6300 nM in experiment [1], > 100 µM in experiment [2] and 20.2 µM in experiment [3].
For `CCNC(=O)c1cc2c(-c3cc(OCCCCCn4cc(-c5ncnc6[nH]ccc56)cn4)c(Cl)cc3Cl)nc(N)nc2s1`, the values for the IC50 in experiment [4] and in experiment [5] were 3.45 µM and 0.4 µM, respectively.
Taken in the same sequence, the figures for `CCNC(=O)c1cc2c(-c3cc(OCCCCCCn4cc(-c5ncnc6[nH]ccc56)cn4)c(Cl)cc3Cl)nc(N)nc2s1` were 1.71 µM and 0.11 µM.
Regarding `CCNC(=O)c1cc2c(-c3cccc(OCCCCCn4cc(-c5ncnc6[nH]ccc56)cn4)c3)nc(N)nc2s1`, the IC50 in experiment [5] was > 10 µM.
As for `CCNC(=O)c1cc2c(-c3cc(OCCCCCCn4cc(-c5nc(Nc6ccc(NC(=O)CCCCCCC(=O)NO)cc6)nc6[nH]ccc56)cn4)c(Cl)cc3Cl)nc(N)nc2s1`, the IC50 in experiment [1] is 2820 nM; in experiment [4], 14.1 µM; in experiment [2], > 100 µM; in experiment [3], > 100 µM.
As for `CCNC(=O)c1cc2c(-c3cccc(OCCCCn4cc(-c5ncnc6[nH]ccc56)cn4)c3)nc(N)nc2s1`, the IC50 in experiment [4] and in experiment [5] was > 10 µM in each case.
As to `CCNC(=O)c1cc2c(-c3cccc(OCCCCCCOc4ccc(Nc5nc(-c6cnn(CCCCCCC(=O)NO)c6)c6cc[nH]c6n5)cc4)c3)nc(N)nc2s1`, the IC50 in experiment [1] was 8 nM; in experiment [4], > 100 µM; in experiment [2], 2.47 µM; in experiment [3], > 100 µM.
For `CCNC(=O)c1cc2c(-c3cccc(OCCCCCCn4cc(-c5ncnc6[nH]ccc56)cn4)c3)nc(N)nc2s1`, the IC50 in experiment [5] is > 10 µM.
